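Interpolation was linear, between the two tested concentrations surrounding the appropriate level; five concentrations were tested over 48 hours in 96-well plates. Abbreviation: GI50, concentration required for 50% inhibition of growth. TGI: total growth inhibition.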
Columns and labels:
Assay in all cases: DTP human tumour cell line panel, 48 h
T-47D breast = system: T-47D breast
SR leukemia = system: SR leukemia
OVCAR-8 ovarian = system: OVCAR-8 ovarian
K-562 leukemia = system: K-562 leukemia
SW-620 colon = system: SW-620 colon
LOX IMVI melanoma = system: LOX IMVI melanoma
NCI-H226 lung = system: NCI-H226 lung
OVCAR-3 ovarian = system: OVCAR-3 ovarian
UACC-257 melanoma = system: UACC-257 melanoma
HCC-2998 colon = system: HCC-2998 colon
786-0 renal = system: 786-0 renal
OVCAR-5 ovarian = system: OVCAR-5 ovarian
MDA-MB-231 breast = system: MDA-MB-231 breast
EKVX NSCLC = system: EKVX NSCLC
SK-MEL-5 melanoma = system: SK-MEL-5 melanoma
ACHN renal = system: ACHN renal
CCRF-CEM leukemia = system: CCRF-CEM leukemia
RPMI-8226 leukemia = system: RPMI-8226 leukemia
SF-268 CNS = system: SF-268 CNS
UACC-62 melanoma = system: UACC-62 melanoma
BT-549 breast = system: BT-549 breast
MOLT-4 leukemia = system: MOLT-4 leukemia
MCF7 breast = system: MCF7 breast
MDA-MB-435 = system: MDA-MB-435
HCT-116 colon = system: HCT-116 colon
PC-3 prostate = system: PC-3 prostate
HT29 colon = system: HT29 colon
OVCAR-4 ovarian = system: OVCAR-4 ovarian
SN12C renal = system: SN12C renal
IGROV1 ovarian = system: IGROV1 ovarian
SK-MEL-28 melanoma = system: SK-MEL-28 melanoma
NCI-H522 lung = system: NCI-H522 lung
A549 NSCLC = system: A549 NSCLC
NCI-H460 lung = system: NCI-H460 lung
HOP-62 NSCLC = system: HOP-62 NSCLC
SK-MEL-2 melanoma = system: SK-MEL-2 melanoma
MALME-3M melanoma = system: MALME-3M melanoma
NCI-H23 lung = system: NCI-H23 lung
A498 renal = system: A498 renal
HOP-92 NSCLC = system: HOP-92 NSCLC
COLO 205 colon = system: COLO 205 colon
SNB-19 CNS = system: SNB-19 CNS
HL-60(TB) leukemia = system: HL-60(TB) leukemia
RXF 393 renal = system: RXF 393 renal
KM12 colon = system: KM12 colon
DU-145 prostate = system: DU-145 prostate
SNB-75 CNS = system: SNB-75 CNS
U251 CNS = system: U251 CNS
TK-10 renal = system: TK-10 renal
UO-31 renal = system: UO-31 renal
HS 578T breast = system: HS 578T breast
HCT-15 colon = system: HCT-15 colon
SF-295 CNS = system: SF-295 CNS
CAKI-1 renal = system: CAKI-1 renal
M14 melanoma = system: M14 melanoma
SF-539 CNS = system: SF-539 CNS
NCI/ADR-RES ovarian = system: NCI/ADR-RES ovarian
SK-OV-3 ovarian = system: SK-OV-3 ovarian

N[C@H]1C[C@@H]1c1ccc(-c2cccc(O)c2)cc1
GI50 (T-47D breast): 23 µM
TGI (T-47D breast): > 100 µM
GI50 (SR leukemia): 24.7 µM
TGI (SR leukemia): 65.2 µM
GI50 (OVCAR-8 ovarian): 34 µM
TGI (OVCAR-8 ovarian): > 100 µM
GI50 (K-562 leukemia): 21 µM
TGI (K-562 leukemia): 76.1 µM
GI50 (SW-620 colon): 32.1 µM
TGI (SW-620 colon): > 100 µM
GI50 (LOX IMVI melanoma): 14.8 µM
TGI (LOX IMVI melanoma): 29.7 µM
GI50 (NCI-H226 lung): > 100 µM
TGI (NCI-H226 lung): > 100 µM
GI50 (OVCAR-3 ovarian): 38.9 µM
TGI (OVCAR-3 ovarian): > 100 µM
GI50 (UACC-257 melanoma): 23.4 µM
TGI (UACC-257 melanoma): 63.8 µM
GI50 (HCC-2998 colon): 20 µM
TGI (HCC-2998 colon): 67.2 µM
GI50 (786-0 renal): 29.6 µM
TGI (786-0 renal): > 100 µM
GI50 (OVCAR-5 ovarian): 37.5 µM
TGI (OVCAR-5 ovarian): > 100 µM
GI50 (MDA-MB-231 breast): 17.6 µM
TGI (MDA-MB-231 breast): 44 µM
GI50 (EKVX NSCLC): 27.2 µM
TGI (EKVX NSCLC): > 100 µM
GI50 (SK-MEL-5 melanoma): 15.5 µM
TGI (SK-MEL-5 melanoma): 30.2 µM
GI50 (ACHN renal): 23.2 µM
TGI (ACHN renal): 93.3 µM
GI50 (CCRF-CEM leukemia): 29.3 µM
TGI (CCRF-CEM leukemia): > 100 µM
GI50 (RPMI-8226 leukemia): 19 µM
TGI (RPMI-8226 leukemia): 63 µM
GI50 (SF-268 CNS): 27.5 µM
TGI (SF-268 CNS): > 100 µM
GI50 (UACC-62 melanoma): 15.9 µM
TGI (UACC-62 melanoma): 35 µM
GI50 (BT-549 breast): 22.4 µM
TGI (BT-549 breast): > 100 µM
GI50 (MOLT-4 leukemia): 22.3 µM
TGI (MOLT-4 leukemia): 74.5 µM
GI50 (MCF7 breast): 22.9 µM
TGI (MCF7 breast): > 100 µM
GI50 (MDA-MB-435): 22.6 µM
TGI (MDA-MB-435): 61.6 µM
GI50 (HCT-116 colon): 25 µM
TGI (HCT-116 colon): > 100 µM
GI50 (PC-3 prostate): 26.4 µM
TGI (PC-3 prostate): > 100 µM
GI50 (HT29 colon): 34.7 µM
TGI (HT29 colon): > 100 µM
GI50 (OVCAR-4 ovarian): 28.9 µM
TGI (OVCAR-4 ovarian): > 100 µM
GI50 (SN12C renal): 34.5 µM
TGI (SN12C renal): > 100 µM
GI50 (IGROV1 ovarian): 30.8 µM
TGI (IGROV1 ovarian): > 100 µM
GI50 (SK-MEL-28 melanoma): 24.3 µM
TGI (SK-MEL-28 melanoma): 69.2 µM
GI50 (NCI-H522 lung): 15 µM
TGI (NCI-H522 lung): 35.1 µM
GI50 (A549 NSCLC): 50.6 µM
TGI (A549 NSCLC): > 100 µM
GI50 (NCI-H460 lung): 45.9 µM
TGI (NCI-H460 lung): > 100 µM
GI50 (HOP-62 NSCLC): 28.3 µM
TGI (HOP-62 NSCLC): > 100 µM
GI50 (SK-MEL-2 melanoma): 19 µM
TGI (SK-MEL-2 melanoma): 52.6 µM
GI50 (MALME-3M melanoma): 14.2 µM
TGI (MALME-3M melanoma): 44.9 µM
GI50 (NCI-H23 lung): 37.6 µM
TGI (NCI-H23 lung): > 100 µM
GI50 (A498 renal): 14.8 µM
TGI (A498 renal): 69.6 µM
GI50 (HOP-92 NSCLC): 11.9 µM
TGI (HOP-92 NSCLC): 72 µM
GI50 (COLO 205 colon): 29.2 µM
TGI (COLO 205 colon): > 100 µM
GI50 (SNB-19 CNS): 53.8 µM
TGI (SNB-19 CNS): > 100 µM
GI50 (HL-60(TB) leukemia): 17.6 µM
TGI (HL-60(TB) leukemia): 44.9 µM
GI50 (RXF 393 renal): 17.1 µM
TGI (RXF 393 renal): > 100 µM
GI50 (KM12 colon): 29.2 µM
TGI (KM12 colon): 93.4 µM
GI50 (DU-145 prostate): 42.2 µM
TGI (DU-145 prostate): > 100 µM
GI50 (SNB-75 CNS): 11.7 µM
TGI (SNB-75 CNS): 49 µM
GI50 (U251 CNS): 34.7 µM
TGI (U251 CNS): > 100 µM
GI50 (TK-10 renal): 31.1 µM
TGI (TK-10 renal): > 100 µM
GI50 (UO-31 renal): 17.7 µM
TGI (UO-31 renal): 82.4 µM
GI50 (HS 578T breast): 22.8 µM
TGI (HS 578T breast): > 100 µM
GI50 (HCT-15 colon): 26.7 µM
TGI (HCT-15 colon): > 100 µM
GI50 (SF-295 CNS): 28.1 µM
TGI (SF-295 CNS): > 100 µM
GI50 (CAKI-1 renal): 22.4 µM
TGI (CAKI-1 renal): 82.9 µM
GI50 (M14 melanoma): 15.7 µM
TGI (M14 melanoma): 36.3 µM
GI50 (SF-539 CNS): 24.2 µM
TGI (SF-539 CNS): 98.4 µM
GI50 (NCI/ADR-RES ovarian): 36.8 µM
TGI (NCI/ADR-RES ovarian): > 100 µM
GI50 (SK-OV-3 ovarian): 25.1 µM
TGI (SK-OV-3 ovarian): > 100 µM

CCCc1cn2c(/C=N/N=C(N)N)c(-c3c(OC)ccc(OC)c3[N+](=O)[O-])nc2s1
TGI (T-47D breast): 24.3 µM
TGI (SR leukemia): 4.34 µM
TGI (OVCAR-8 ovarian): 47.3 µM
TGI (K-562 leukemia): 11.5 µM
TGI (SW-620 colon): 32.9 µM
TGI (LOX IMVI melanoma): 9.13 µM
TGI (NCI-H226 lung): 38.3 µM
TGI (OVCAR-3 ovarian): 18.2 µM
TGI (UACC-257 melanoma): 28.4 µM
TGI (HCC-2998 colon): 4.59 µM
TGI (786-0 renal): 28.1 µM
TGI (OVCAR-5 ovarian): 34.5 µM
TGI (MDA-MB-231 breast): 16.2 µM
TGI (EKVX NSCLC): 44.8 µM
TGI (SK-MEL-5 melanoma): 32.3 µM
TGI (ACHN renal): 35.6 µM
TGI (CCRF-CEM leukemia): 8.43 µM
TGI (RPMI-8226 leukemia): 8.7 µM
TGI (SF-268 CNS): 47.2 µM
TGI (UACC-62 melanoma): 25.4 µM
TGI (BT-549 breast): 35.6 µM
TGI (MOLT-4 leukemia): 4.19 µM
TGI (MCF7 breast): 20.8 µM
TGI (MDA-MB-435): 19.9 µM
TGI (HCT-116 colon): 22.2 µM
TGI (PC-3 prostate): 26.5 µM
TGI (HT29 colon): > 38.5 µM
TGI (OVCAR-4 ovarian): 66.2 µM
TGI (SN12C renal): 31.7 µM
TGI (IGROV1 ovarian): 34.8 µM
TGI (SK-MEL-28 melanoma): 19.4 µM
TGI (NCI-H522 lung): 34.2 µM
TGI (A549 NSCLC): 51.3 µM
TGI (NCI-H460 lung): 41.6 µM
TGI (HOP-62 NSCLC): 31.1 µM
TGI (SK-MEL-2 melanoma): 46.5 µM
TGI (MALME-3M melanoma): 30 µM
TGI (NCI-H23 lung): 26.1 µM
TGI (A498 renal): 44.6 µM
TGI (HOP-92 NSCLC): 47 µM
TGI (COLO 205 colon): 6.42 µM
TGI (SNB-19 CNS): 49.9 µM
TGI (HL-60(TB) leukemia): 27.6 µM
TGI (RXF 393 renal): 41.2 µM
TGI (KM12 colon): 11.6 µM
TGI (DU-145 prostate): 35.6 µM
TGI (SNB-75 CNS): > 59.1 µM
TGI (U251 CNS): 18.7 µM
TGI (TK-10 renal): 41 µM
TGI (UO-31 renal): 45 µM
TGI (HS 578T breast): 41.9 µM
TGI (HCT-15 colon): 37 µM
TGI (SF-295 CNS): 35.7 µM
TGI (CAKI-1 renal): 30.6 µM
TGI (M14 melanoma): 21.3 µM
TGI (SF-539 CNS): 36.9 µM
TGI (NCI/ADR-RES ovarian): 64.6 µM
TGI (SK-OV-3 ovarian): 43.3 µM

From PubChem BioAssay (NCI)
